US5149648A, “Enzymes employed for producing pulps” (Kabushiki Kaisha Kobe Seiko Sho, priority 1989, dated 1992)
Read-outs that look alike come from different tables or passages of the source.

How the values were obtained:
F-3 = assay type: biochemical, NK-1148 strain
Description: (§1) The results of measuring enzyme activities of the enzymes of this invention (F-1, F-2 and F-3) after adding each of various substances are as follows.
(§2) 20 μl of the enzyme of this invention is made to react with a reaction solution consisting of 10 μl of a 10 mM syringylglycerol-β-syringylether solution which contains a small amount of dioxane and 720 μl of a 50 mM acetate buffer solution (pH 5.0) and increases of absorbance at 300 nm are measured.
(§3) Enzyme activity producing a 0.01 increase of absorbance during one minute is supposed to be one unit.

F-2 = assay type: biochemical, NK-1148 strain
Description: as §1, §2, §3

F-1 = assay type: biochemical, NK-1148 strain
Description: as §1, §2, §3

[1] = tested on: NK-1148 strain (FERM BP-1859); assay: Effect of lignin-related substances on the enzyme production; assay type: cell-based; conditions: 0.2% of substance added after 7 days culture, further cultured at 28° C. for one day
Description: as §2, §3
After 100 ml of a medium of the same composition as that used in Example 3 was placed in a 500 ml Erlenmeyer flask and sterilized at 120° C. for 15 minutes, NK-1148 strain (FERM BP-1859) was inoculated into the medium and cultured at 28° C. for 7 days.

[2] = substance added at 1 mM, no addition = 100%
[3] = substance added at 0.5 mM, no addition = 100%

| Structure (SMILES) | Relative Activity F-3 (F-3; [2]) [%] | Relative Activity F-2 (F-2; [2]) [%] | Relative Activity F-1 (F-1; [2]) [%] | other results |
| --- | --- | --- | --- | --- |
| OCCS [2-Mercapto-ethanol] | 15 | 19 | 10 | – |
| [Cl][Al]([Cl])[Cl] [AlCl3] | 65 | 65 | 61 | – |
| [Ba+2].[Cl-].[Cl-] [BaCl2] | 95 | 95 | 93 | – |
| OCc1ccccc1 [Benzyl alcohol, benzyl alcohol] | – | – | – | Enzymatic activity [1]: 0.01 Unit/ml |
| [Ca+2].[Cl-].[Cl-] [CaCl2] | 95 | 95 | 94 | – |
| [Cl-].[Cl-].[Co+2] [CoCl2] | 96 | 94 | 97 | – |
| [Cl][Cu][Cl] [CuCl2] | 100 | 92 | 102 | – |
| N[C@@H](CS)C(=O)O [Cysteine] | 13 | 21 | 11 | – |
| O=C(O)CN(CCN(CC(=O)O)CC(=O)O)CC(=O)O [EDTA] | – | – | – | Relative Activity F-3 (F-3; pH 5, 1000 µM): 101; Relative Activity F-2 (F-2; pH 5, 1000 µM): 102; Relative Activity F-1 (F-1; pH 5, 1000 µM): 98 |
| [Cl][Fe]([Cl])[Cl] [FeCl3] | – | – | – | Relative Activity F-3 (F-3; [3]): 25%; Relative Activity F-2 (F-2; [3]): 31%; Relative Activity F-1 (F-1; [3]): 15% |
| [Cl][Hg][Cl] [HgCl2] | 18 | 21 | 11 | – |
| [Cl-].[Cl-].[Mg+2] [MgCl2] | 95 | 94 | 94 | – |
| [Cl][Mn][Cl] [MnCl2] | 95 | 95 | 95 | – |
| [N-]=[N+]=[N-].[Na+] [NaN3] | 20 | 23 | 14 | – |
| CCCCCCCCCCCCOS(=O)(=O)[O-].[Na+] [SDS, sodium dodecyl sulfate] | 103 | 101 | 106 | – |
| COc1cc(CO)cc(OC)c1O [Syringyl alcohol, syringyl alcohol] | – | – | – | Enzymatic activity [1]: 4.0 Unit/ml |
| COc1cc(C(O)C(CO)Oc2c(OC)cccc2OC)cc(OC)c1O (stereo not drawn) [Syringylglycerol-β-syringylether, syringylglycerol-β-syringylether] | – | – | – | Enzymatic activity [1]: 3.9 Unit/ml |
| COc1cc(CO)ccc1O [Vanillyl alcohol, vanillyl alcohol] | – | – | – | Enzymatic activity [1]: 3.95 Unit/ml |
| COc1ccc(CO)cc1OC [Veratryl alcohol, veratryl alcohol] | – | – | – | Enzymatic activity [1]: 0.05 Unit/ml |
| [Cl-].[Cl-].[Zn+2] [ZnCl3] | 94 | 93 | 94 | – |
